According to PMC10347550, “Cyclic Ruthenium-Peptide Conjugates as Integrin-Targeting Phototherapeutic Prodrugs for the Treatment of Brain Tumors” (Journal of the American Chemical Society, 2023):
Read-outs that look alike come from different tables or passages of the source.

Key:
[1] = Octanol-water partition coefficient (log P); type: physicochemical; conditions: shake-flask, octanol-saturated water / water-saturated octanol, shaken 24 h in the dark, room temperature; Ru in water phase by ICP-MS; ± SD from 4 concentration points
Method: Each complex was first dissolved in octanol-saturated water (0.5 mM, 500 μL) and centrifuged (2000 rpm, 5 min) to isolate the undissolved solid. 450 μL of the supernatant was taken out as the stock solution; after that, 5, 10, 50, 100, and 150 μL of solution were added to the 15 mL tube, and more octanol-saturated water was added to adjust the final volume to 1 mL. 1 mL of water-saturated octanol was added further, and the tubes were mildly shaken (Gesellschaft für Labortechnik mbH, type3016) for 24 h under dark conditions. After that, the solutions were centrifuged for 5 min at 2000 rpm at room temperature, and 0.5 mL of the water phase (below phase) was moved to a 15 mL centrifuge tube by an Eppendorf pipette. Then, 0.1 mL of 65% HNO3 was added into the tube using an organic pipette gun, and each solution was shaken for 1 h. 9.9 mL of MilliQ water was added into each tube, making a total volume of 10 mL. To detect the Ru content of the stock solution, 10 μL of each stock solution was mixed with 0.490 mL of 65% HNO3, and the mixture was shaken for 1 h. Then, […] of MilliQ water was added to the tube, making a total volume of 10 mL. ICP-MS measurement was performed using a NexION 2000 from PerkinElmer. The ruthenium content in each well was obtained in ppb. The partition coefficients (log P) were calculated using the following eq 3 [drawing 3] 3
where [complex]total is the concentration of the complex in the control sample (where no water-saturated octanol was added) and [complex]water is the concentration of the complex in the aqueous layer.

[2] = system: U87MG spheroids; experiment: 3D tumor spheroid viability assay, CellTiter-Glo 3D; type: cell-based, human; conditions: U87MG 3D spheroids; for EC50: CellTiter-Glo 3D at 96 h, n = 3
Method: The spheroids were incubated further under normoxia. […] After 30 min of shaking on an IKA Vibrax shaker at 500 rpm at room temperature, the luminescence in each well was measured with a Tecan microplate reader. […] All experiments were conducted in three biologically independent replicates.

[3] = Nanoaggregation in Opti-MEM by DLS and TEM; type: physicochemical; conditions: dark; for DLS size distribution: 24 h
Method: DLS was used to determine the distribution of particles in complex solutions (50 μM) in Opti-MEM (Gibco complete medium 11058-021, supplemented with 0.2% v/v penicillin/streptomycin (P/S), and 1% v/v glutamine) with or without 2.5% fetal calf serum (FCS) proteins via a ZEN1600 Zetasizer Nano instrument (Malvern Instruments Limited) operated with a 633 nm laser.
The TEM experiments were carried out with a TEM JEOL 1010:100 kV transmission electron microscope using a Formvar/carbon-coated copper grid (Polysciences Inc.). For the preparation of samples, a 1 mM stock aqua solution was diluted to 50 μM by Opti-MEM, after which, each drop (15 μL) of the complex solution was deposited on a parafilm (Bemis, HS234526C). The grids (Electron Microscopy Sciences, 71137) were placed on top of the drops for 5 min and then the excess liquid on the grid was removed with filter paper and air dried for 2 h for the TEM measurement. The TEM measurements were carried out under vacuum conditions.

[4] = system: U87MG cells; experiment: Intracellular ROS generation, CellROX Deep Red, flow cytometry; conditions: 15 µM, 24 h
[5] = system: A549 cells; experiment: 2D cytotoxicity assay, 24 h DLI & no wash, SRB endpoint; type: cell-based, human; conditions: for EC50: A549 2D monolayer, not washed, n = 3
Method: (§1) For each complex, two identical plates were prepared, one of which was irradiated with light, while the other was used as a dark control. […] Finally, at t = 96 h, 100 μL of cold trichloroacetic acid (10% w/v) was added to each well to fix the cells, and all plates were then transferred to a 4 °C refrigerator for 48 h before performing an SRB cell quantification endpoint assay.[72] Trichloroacetic acid was first removed and each plate was gently washed with demi water 3–5 times. Then, each well was dried in the air, and 100 μL of 0.6% SRB solution (0.6% w/v in 1% v/v acetic acid/H2O solution) was added into each well where it was allowed to stain for 30 min. Then, the plates were washed 3–5 times using an acetic acid solution (1% v/v). Once the plate was washed it was allowed to dry overnight. Then, 200 μL of 10 mM Tris base buffer was added to each well and the plate was allowed to sit on an orbital shaker for 0.5–16 h. After mixing, the absorbance of each well was determined by an M1000 Tecan Reader, reading at 510 nm. All experiments were conducted in independent biological triplicate. The obtained data were analyzed with Graphpad Prism 5 using the dose–response two-parameter Hill slope equation (eq 1) to obtain the half-maximal effective concentrations EC50 (defined as the concentration of drug that kills 50% of cells, compared to the untreated control). [drawing 1] 1

[6] = system: U87MG cells; experiment: as above; type: cell-based, human; conditions: for EC50: U87MG 2D monolayer, not washed, SRB at 96 h, n = 3; for PI (EC50,dark/EC50,light): U87MG
Method: as §1

[7] = system: PC-3 cells; experiment: as above; type: cell-based, human; conditions: for EC50: PC-3 2D monolayer, not washed, SRB at 96 h, n = 3
Method: as §1

[8] = 21% O2, dark, 24 h treatment, read-out: EC50,dark
[9] = 21% O2, green light after 24 h treatment, read-out: EC50,light
[10] = 1% O2, dark, 24 h treatment, SRB at 96 h, read-out: EC50,dark
[11] = 1% O2, 520 nm, 7.22 mW/cm^2, 13.1 J/cm^2, 30 min, SRB at 96 h, read-out: EC50,light
[12] = 21% O2, dark, 24 h treatment, SRB at t = 96 h, read-out: EC50,dark
[13] = 21% O2, 24 h treatment, 520 nm, 10.9 mW/cm^2, 13.1 J/cm^2, 20 min, SRB at 96 h, read-out: EC50,light
[14] = 1% O2, dark, 24 h treatment, read-out: EC50,dark
[15] = 1% O2, 520 nm, 7.22 mW/cm^2, 13.1 J/cm^2, 30 min, read-out: EC50,light
[16] = 21% O2, 520 nm, 10.9 mW/cm^2, 13.1 J/cm^2, 20 min, read-out: EC50,light

PI (EC50,dark/EC50,light) ([2]; 21% O2) | EC50 [2, 8] [µM] | EC50 [2, 9] [µM] | Substance | log P (octanol-water partition coefficient) [1] | Ratio of L/D (light/dark ROS ratio) [4] | EC50 [5, 10] [µM] | EC50 [5, 11] [µM] | EC50 [5, 12] [µM] | EC50 [5, 13] [µM] | PI (EC50,dark/EC50,light) ([5]; A549, 1% O2) | PI (EC50,dark/EC50,light) ([5]; A549, 21% O2) | EC50 [6, 14] [µM] | EC50 [6, 15] [µM] | EC50 [6, 8] [µM] | EC50 [6, 16] [µM] | PI (EC50,dark/EC50,light) ([6]; 1% O2) | EC50 [7, 14] [µM] | EC50 [7, 15] [µM] | EC50 [7, 8] [µM] | EC50 [7, 16] [µM] | also measured
4.9 | 37 | 7.6 | [Ru(Ph2phen)2(κ^S,κ^N-(Ac-MRGDH-NH2))]Cl2 (sidechain bridge or staple) [Λ-[1]Cl2] [cyclic ruthenium-peptide conjugate, Ac-MRGDH-NH2 coordinated via Met S and His N] | −0.03 ± 0.02 | 7.03 | 51 | 19 | 66.8 | 5 | 2.7 | 13 | 41.4 | 19 | 41.6 | 3.8 | 2.2 | 74.3 | 46.5 | 66.6 | 5.3 | nanoparticle formation (DLS) ([3]; 50 μM in Opti-MEM with 2.5% FCS, 24 h (Figure S20)): Nanoparticles of similar size were observed; PI (EC50,dark/EC50,light) ([7]; PC-3, 1% O2): 1.5; PI (EC50,dark/EC50,light) ([7]; PC-3, 21% O2): 12
4.2 | 46 | 10.9 | [Ru(Ph2phen)2(κ^S,κ^N-(Ac-MRGDH-NH2))]Cl2 (sidechain bridge or staple) [Δ-[1]Cl2] [cyclic ruthenium-peptide conjugate, Ac-MRGDH-NH2 coordinated via Met S and His N] | 0.00 ± 0.02 | 8.24 | 50.1 | 17.3 | 72.5 | 4.3 | 2.9 | 17 | 42.7 | 18.8 | 39.5 | 3.6 | 2.3 | 61.4 | 50.7 | 52 | 6 | DLS size distribution ([3]; 50 μM in Opti-MEM with 2.5% FCS): around 100 nm; DLS size distribution ([3]; 50 μM in Opti-MEM without FCS): above 1 μm; PI (EC50,dark/EC50,light) ([6]; 21% O2): 11; PI (EC50,dark/EC50,light) ([7]; PC-3, 1% O2): 1.2; PI (EC50,dark/EC50,light) ([7]; PC-3, 21% O2): 9
